Earlier results, collected in patent US20220288147A1, “GINSENG COMPOSITION AND USE THEREOF AS A MEDICAMENT” (BOTALYS SA, priority 2019, published 2022).

Conditions: oral

Row | Absorption rates of an orally administered dose [%] | Compound
1 | ≥ 0.1 | CC(C)=CCC[C@](C)(O[C@@H]1O[C@H](CO)[C@@H](O)[C@H](O)[C@H]1O)[C@H]1CC[C@]2(C)[C@@H]1[C@H](O)C[C@@H]1[C@@]3(C)CC[C@H](O)C(C)(C)[C@@H]3[C@@H](O[C@@H]3O[C@H](CO)[C@@H](O)[C@H](O)[C@H]3O)C[C@]12C [Rg1]
2 | ≥ 1.9 | CC(C)=CCC[C@](C)(O)[C@H]1CC[C@]2(C)[C@@H]1[C@H](O)C[C@@H]1[C@@]3(C)CC[C@H](O)C(C)(C)[C@@H]3[C@@H](O[C@@H]3O[C@H](CO)[C@@H](O)[C@H](O)[C@H]3O[C@@H]3O[C@@H](C)[C@H](O)[C@@H](O)[C@H]3O)C[C@]12C [Rg2]
